“And” between values parts separate entries of the source, which are not always exact repeats. Equal entries are not always repeated.
Tests used:
[1] = test system: PBMC; experiment: Total Antioxidant Capacity Assay, PBMC; type: cell-based, human; settings: 50 μM hydroxytyrosol, 200 μM Oleuropein or Formulation 2 (dilution factor=4), 24 hours
Description: Human peripheral blood mononuclear cells were seeded at 1×10^6 cells per well in 12 well culture plates (Nalge Nunc) with Formulation 2 (dilution factor=4) (Table 9), 50 μM hydroxytyrosol or 200 μM Oleuropein for 24 hours; 37° C., 5% (v/v) CO2. In separate experiments, cells were treated with 30 mM glucose for 72 hours prior to 24 hours incubation in fresh media and then a 24 hour incubation with the hydroxytyrosol-containing formulation 2 (dilution factor=4); 37° C., 5% (v/v) CO2. Experiments to determine the protection of cells following doxorubicin treatment involved pre-treatment with Formulation 2 (dilution factor=4) for 24 hours prior to 1 hour incubation with 1 μM doxorubicin. Cells were washed and incubated for a further 24 hours in fresh media; 37° C., 5% (v/v) CO2. Cells were harvested for their total protein by centrifugation at 1000×g for 10 minutes at 4° C. to pellet cell suspensions. […] Cell lysates were analyzed for their total antioxidant capacity. […] The sum of endogenous and food-derived antioxidants in the sample represented the total antioxidant activity of the cells and was measured by their ability to inhibit the oxidation of ABTS (2,2′-Azino-di-[3-ethylbenzthiazoline sulphonate]) in the presence of metmyoglobin using the Perkin Elmer Multi-plate reader (λem=750 nm). […]

[2] = test system: K562 cells; experiment: mRNA-Sequencing, K562 cells; type: cell-based, human; settings: 24 hours
Description: Cells were seeded at densities of 1×10^6/mL in culture flasks (Nalge Nunc, New York, USA) and treated with hydroxytyrosol (0, 20, 100 μM), for 24 hours at 37° C., 5% (v/v) CO2. mRNA sequencing was performed by TRIZOL extraction and library preparation using Illumina kits according to manufacturer's protocols. Next generation sequencing (NGS) was performed at a depth of approximately 20 million mapped reads per sample to determine the effect of hydroxytyrosol on genome-wide gene expression, in human erythroleukemic K562 cells and human keratinocytes (24 hr treatment, 20 and 100 μM). Reads generated by the Illumina base calling software V1.6 were aligned with Burrows Wheeler Aligner to the human transcriptome database curated by RefSeq (Hg18 build). Raw counts were normalized to adjust for slightly differing data volume across lanes giving the widely used score reads per transcript per million reads. These scores were used to determine relative fold changes and the conventionally used ±1.5 fold-change, which is discernible with qRT-PCR, was defined a significant change in expression. The online program MetaCore (GeneGo Inc. St. Joseph, MI, USA) was used for pathway analysis.
Cells were seeded at densities of 1×10^6/mL in culture flasks (Nalge Nunc, New York, USA) and K562 cells were treated with or without 100 μM hydroxytyrosol for 24 hours at 37° C., 5% (v/v) CO2. mRNA sequencing was performed by TRIZOL extraction and library preparation using Illumina kits according to manufacturer's protocols. Next generation sequencing (NGS) was performed at a depth of approximately 20 million mapped reads per sample. Reads generated by the Illumina base calling software V1.6 were aligned with Burrows Wheeler Aligner to the human transcriptome database curated by RefSeq (Hg18 build). Raw counts were normalized to adjust for slightly differing data volume across lanes giving the widely used score reads per transcript per million reads. These scores were used to determine relative fold changes and the conventionally used ±1.5 fold-change, which is discernible with qRT-PCR, was defined a significant change in expression. The online program MetaCore (GeneGo Inc. St. Joseph, MI, USA) was used for pathway analysis. The Warburg gene-set shown in Table 10 was used to investigate changes in Warburg-related genes in human erythroleukemic compared to normal peripheral blood mononuclear cells and changes in expression of Warburg-related genes following incubation of K562 cells with hydroxytyrosol.

[3] = 100 μM HT, negative = down-regulated
[4] = 100 μM HT, negative = down-regulated, listed as hydroxytyrosol
[5] = 100 μM hydroxytyrosol, unsigned

OCCc1ccc(O)c(O)c1 [HT, 4-(2-hydroxyethyl)-1,2-benzenediol]
total antioxidant capacity ([1]; listed as Hydroxytyrosol): significantly increased the total antioxidant
total antioxidant capacity ([1]; listed as hydroxytyrosol): enhance the antioxidant capacity
HDAC9 expression Fold Change (DOWN) ([2]; 20 μM HT): 1.82 fold and 2.00 fold
KDM4C expression Fold Change (DOWN) ([2]; 20 μM HT): 1.61 fold
NCOA2 expression Fold Change (DOWN) ([2]; 20 μM HT): 1.63 fold
PHF8 expression Fold Change (DOWN) ([2]; 20 μM HT): 1.62 fold
PRDM1 expression Fold Change (DOWN) ([2]; 20 μM HT): 1.68 fold
PRDM6 expression Fold Change (UP) ([2]; 20 μM HT): 3.50 fold
PRDM12 expression Fold Change (DOWN) ([2]; 20 μM HT): 1.50 fold
PRMT8 expression Fold Change (DOWN) ([2]; 20 μM HT): 2.13 fold
EHMT1 expression Fold Change (DOWN) ([2]; 100 μM HT): 1.63 fold
GTF3C4 expression Fold Change (DOWN) ([2]; 100 μM HT): 1.55 fold
HDAC7 expression Fold Change (DOWN) ([2]; 100 μM HT): 1.76 fold and 1.78 fold
HDAC9 expression Fold Change (UP) ([2]; 100 μM HT): 2.05 fold and 1.50 fold
KDM4A expression Fold Change (UP) ([2]; 100 μM HT): 1.71 fold
KDM4C expression Fold Change (DOWN) ([2]; 100 μM HT): 1.66 fold
KDM6B expression Fold Change (UP) ([2]; 100 μM HT): 1.70 fold
MLL3 expression Fold Change (DOWN) ([2]; 100 μM HT): 1.68 fold
NCOA2 expression Fold Change (DOWN) ([2]; 100 μM HT): 1.50 fold
NPM2 expression Fold Change (DOWN) ([2]; 100 μM HT): 3.33 fold
PPARGC1A expression Fold Change (UP) ([2]; 100 μM HT): 2.00 fold
PRDM6 expression Fold Change (DOWN) ([2]; 100 μM HT): 2.00 fold
PRDM9 expression Fold Change (UP) ([2]; 100 μM HT): 1.85 fold
PRDM10 expression Fold Change (DOWN) ([2]; 100 μM HT): 1.92 fold
PRDM12 expression Fold Change (UP) ([2]; 100 μM HT): 2.00 fold
PRDM15 expression Fold Change (DOWN) ([2]; 100 μM HT): 1.78 fold
PRMT8 expression Fold Change (DOWN) ([2]; 100 μM HT): 1.89 fold
RPS6KA5 expression Fold Change (UP) ([2]; 100 μM HT): 1.56 fold
SETD1A expression Fold Change (DOWN) ([2]; 100 μM HT): 1.56 fold
SETD7 expression Fold Change (UP) ([2]; 100 μM HT): 3.41 fold
SMYD3 expression Fold Change (UP) ([2]; 100 μM HT): 1.60 fold and 1.57 fold
ACLY expression Fold Change, K562 + 100 μM HT [2, 3]: −1.60 fold
AKT3 expression Fold Change, K562 + 100 μM HT [2, 3]: 2.04 fold
BBC3 expression Fold Change, K562 + 100 μM HT [2, 3]: 2.66 fold
C12orf5 expression Fold Change, K562 + 100 μM HT [2, 3]: 3.57 fold
CASP4 expression Fold Change, K562 + 100 μM HT [2, 3]: 1.87 fold
CASP7 expression Fold Change, K562 + 100 μM HT [2, 3]: 2.27 fold
CASP8 expression Fold Change, K562 + 100 μM HT [2, 3]: 1.62 fold
ME1 expression Fold Change, K562 + 100 μM HT [2, 3]: 2.22 fold
PFKFB2 expression Fold Change, K562 + 100 μM HT [2, 3]: −1.53 fold
PFKFB4 expression Fold Change, K562 + 100 μM HT [2, 3]: −1.79 fold
SLC1A4 expression Fold Change, K562 + 100 μM HT [2, 3]: 4.28 fold
SREBF1 expression Fold Change, K562 + 100 μM HT [2, 3]: −1.69 fold
TFR2 expression Fold Change, K562 + 100 μM HT [2, 3]: −1.90 fold
TP53 expression Fold Change, K562 + 100 μM HT [2, 3]: 2.30 fold
VEGFA expression Fold Change, K562 + 100 μM HT [2, 3]: 2.65 fold
BBC3 expression Fold Change, K562 + 100 μM HT [2, 4]: 2.29 fold
CASP7 expression Fold Change, K562 + 100 μM HT [2, 4]: 2.01 fold
TP53 expression Fold Change, K562 + 100 μM HT [2, 4]: 1.91 fold
differentially expressed Warburg-related genes reversing expression towards that observed in PBMC cells ([2]; 100 μM hydroxytyrosol): 87%
ACLY down-regulated, fold change [2, 5]: 1.59 fold
PFKB2 down-regulated, fold change [2, 5]: 1.53 fold
PFKFB4 down-regulated, fold change [2, 5]: 1.79 fold
transferrin receptor 2 (TRF2) down-regulated [2, 5]: 1.9 fold
differential expression of the Warburg-related genes regulated in K562 vs PBMC ([2]; 100 μM hydroxytyrosol, share of the 51 genes): 30%

— patent publication US10231939B2, “Hydroxytyrosol and oleuropein compositions for induction of DNA damage, cell death and LSD1 inhibition” (priority 2012, dated 2019)
